Experimental findings from US20260284189A1, “TREATMENT OF NON-SMALL CELL LUNG CANCER” (ASTRAZENECA AB, priority 2023, published 2026) are described below.

Experiment [1] relates to resectable non-small cell lung cancer (R-NSCLC). In words: AEGEAN phase III: objective response prior to surgery, BICR (RECIST v1.1). Conditions: mITT N = 366. In kind it is in vivo, human. Here is the method:
Tumors were evaluated per RECIST v1.1 using imaging collected at the following timepoints: baseline (≤28 days before randomization); after completing neoadjuvant treatment and before surgery; 5 weeks (±2 weeks) after surgery and before starting adjuvant treatment; every 12 weeks (±1 week) until Week 48 after surgery; every 24 weeks (±2 weeks) until Week 192 (i.e., ~4 years post-surgery); and every 48 weeks (±2 weeks) thereafter until local or distant recurrence, consent withdrawal, or death.
Efficacy assessments were performed and determined by pathology review or a BICR using RECIST 1.1 assessment, as applicable, including EFS (mITT and PD-L1 TC≥1% analysis set), pCR (mITT and PD-L1 TC≥1% analysis set), mPR (mITT and PD-L1 TC≥1% analysis set), DFS (modified resected set and PD-L1 TC≥1% resected set), and OS (mITT and PD-L1 TC≥1% analysis set). The EFS event of PD that precludes surgery or PD discovered during surgery that prevents completion of surgery will be determined by the Investigator.

Experiment [2] has the same test system. In words: AEGEAN phase III: pathological response (pCR, MPR) by central pathology review. In kind it is in vivo, human. The settings on record: final analysis. An excerpt: As used herein, the terms “pathological complete response” or “pathological CR” or “pCR” refer to the proportion of patients who have 0% residual viable tumor cells within all resected tissue (including primary lung lesion and lymph nodes) following neoadjuvant treatment as assessed by central pathology laboratory. […] Central pathology assessment of pCR will be performed according to the recommended methods and definitions described by IASLC 2020 (Travis et al. “IASLC Multidisciplinary Recommendations for Pathologic Assessment of Lung Cancer Resection Specimens After Neoadjuvant Therapy.” J Thorac Oncol. 2020 May; 15(5):709-740. doi:10.1016/j.jtho.2020.01.005). The analysis can be performed using a Cochran-Mantel-Haenszel (CMH) test, stratified by disease stage (Stage II versus Stage III) and PD-L1 expression status (<1% versus ≥1%). The effect of treatment will be estimated by the difference in proportions between treatment groups, together with their corresponding CI and p-value.
As used herein, the terms “major pathological response” and “mPR” refer to the proportion of patients with 10% or less residual viable tumor tissue in lung primary tumor after neoadjuvant treatment at the time of resection as assessed per central pathology laboratory. […]
Primary tumors and sampled lymph nodes were assessed for pathological response to neoadjuvant treatment by central pathology review using recommendations from the IASLC. […] 2020 May; 15(5):709-740. doi: 10.1016/j.jtho.2020.01.005; Hellmann et al. “Pathological response after neoadjuvant chemotherapy in resectable non-small-cell lung cancers: proposal for the use of major pathological response as a surrogate endpoint.” Lancet Oncol 2014; 15(1):e42-50; Cottrell et al. “Pathologic features of response to neoadjuvant anti-PD-1 in resected non-small-cell lung carcinoma: a proposal for quantitative immune-related pathologic response criteria (irPRC).” Ann Oncol 2018; 29(8):1853-1860). […]
For pathological endpoints, response rates were compared between treatment arms using a stratified Cochran-Mantel-Haenszel test; the treatment effect was estimated by the differences in response rates, with their corresponding 95% confidence intervals (CIs) calculated by the stratified Miettinen and Nurminen method. EFS was compared between the treatment arms using a stratified log-rank test; the treatment effect was estimated by HRs and 95% CIs calculated with stratified Cox-proportional-hazards models. […] For pCR, the differences in response rates were calculated for each subgroup, with corresponding 95% CIs estimated using an unstratified Miettinen and Nurminen method; for EFS, HRs and 95% CIs were calculated for each subgroup using a Cox-proportional-hazards model with treatment as the only covariate.

Consider “Durvalumab: antibody that selectively binds PD-L1 and blocks binding of PD-L1 to PD-1 and CD80; arm given with platinum-based chemotherapy before surgery”, for which, in experiment [1], the “Complete response: number of patients” value was found to be 4, the “Complete response: patients” value is reported as “(1.1) %”, the “Not evaluable (objective response): number of patients” value is 25 and the “Not evaluable (objective response): patients” value is recorded as “(6.8) %”. In addition, in experiment [1], the Objective response rate entry is “(56.3) %”, the “Objective response rate: number of patients” value was determined as 206, the “Partial response: number of patients” value is listed as 202 and the “Partial response: patients” value is “(55.2) %”. For the same substance, in experiment [1], the “Progression: number of patients” value was 11, the “Progression: patients” value is “(3.0) %”, the “Stable disease: number of patients” value turned out to be 124 and the “Stable disease: patients” value is “(33.9) %”. In experiment [2] (mITT N=366, central review), the “MPR, proportion of patients” value is listed as 33.3% and the “pCR, proportion of patients” value is 17.2%. Also, in experiment [2] (mITT N=740), the “MPR difference in proportions, durvalumab arm versus placebo arm” value is 21.0 and the “pCR difference in proportions, durvalumab arm versus placebo arm” value turned out to be 13.0%.
